Test: surface area of crystals formed with and without sonication
Format: physicochemical
Experimental: The method can also include a step of forming a premix, including the substeps of adding, after the step of dissolving, gluconic acid to provide an almost 1:1 premix mixture of cobalt acetate and cobalt gluconate compounds, and then sonicating the premix mixture. The premix remained in solution at 15° C. for over ten days. When additional gluconic acid (1.1 eq of total gluconic acid to acetic acid) was added, and gently mixed, within a half hour precipitation of very fine cobalt gluconate crystals occurred.

Substance: cobalt gluconate
- surface area relative to that observed with sonication: less than 20 times

Source: patent publication US11753430B2, “Method of making cobalt compounds for feed supplements” (Vitalix, Inc., priority 2021, dated 2023)
